Laboratory results: ChEMBL document CHEMBL6134902, “Novel tacrine-based multi-target directed Ligands: Enhancing cholinesterase inhibition, NMDA receptor antagonism, and CNS bioavailability for Alzheimer's disease treatment” (Eur J Med Chem, 2025)

Assays:
[1] = human, microsomes, 0.75 h, 3 µM
[2] = in vitro; settings: human, liver microsomes
[3] = in vitro; settings: human, liver microsomes; remark: listed apart in the source
[4] = Lipophilicity, LogD of compound at pH 7.4 by chromatography; type: physicochemical; settings: buffer
[5] = Lipophilicity, LogD of compound at pH 10.5 by chromatography; type: physicochemical; settings: buffer
[6] = Lipophilicity, LogD of compound at pH 2.6 by chromatography; type: physicochemical; settings: buffer
[7] = Toxicity in male BALB/c mouse administered intraperitoneally measured for 48 hrs; settings: in vivo, route ip
[8] = Tmax in brain of male Balb/c mouse at 15 mg/kg, ip measured up to 120 mins; type: ADME, organism-based
[9] = AUC (infinity) in brain of male Balb/c mouse at 15 mg/kg, ip measured up to 120 mins; type: ADME, organism-based
[10] = Tmax in plasma of male Balb/c mouse at 15 mg/kg, ip measured up to 120 mins; type: ADME, organism-based
[11] = AUC (0 to 120 mins) in brain of male Balb/c mouse at 15 mg/kg, ip measured up to 120 mins; type: ADME, organism-based
[12] = in vivo; settings: male, Balb/c, mouse, brain/plasma, ip, 15 mg/kg
[13] = AUC (0 to 120 mins) in plasma of male Balb/c mouse at 15 mg/kg, ip measured up to 120 mins; type: ADME, organism-based
[14] = Drug uptake in brain of male BALB/c mouse at 15 mg/kg, ip measured after 48 hrs; type: ADME, organism-based; settings: in vivo
[15] = Cmax in brain of male Balb/c mouse at 15 mg/kg, ip measured up to 120 mins; type: ADME, organism-based
[16] = Drug uptake in plasma of male BALB/c mouse at 15 mg/kg, ip measured after 48 hrs; type: ADME, organism-based; settings: in vivo
[17] = Cmax in plasma of male Balb/c mouse at 15 mg/kg, ip measured up to 120 mins; type: ADME, organism-based
[18] = AUC (infinity) in plasma of male Balb/c mouse at 15 mg/kg, ip measured up to 120 mins; type: ADME, organism-based

Drug metabolism [1] | half-life at 0.75 h, 3 µM [2] [min] | microsomal CLint at 0.75 h, 3 µM [3] [µL/min/mg] | chromatographic logD [4] | chromatographic logD [5] | CHI | chromatographic logD [6] | Structure (SMILES) | other results
13.2 10^6No_unit | 32.8 | 42.2 | – | – | – | – | COc1ccc2nc3c(c(N)c2c1)CCCC3 | –
473.1 10^6No_unit | 330 | 4.2 | 3.82 | 4.49 | 27.6 | 1.83 | Nc1c2c(nc3ccc(Oc4ccccc4)cc13)CCCC2 | –
215.5 10^6No_unit | 5.8 | 239 | 4.06 | 4.58 | 29.5 | 1.94 | Cc1ccc(-c2ccc3nc4c(c(N)c3c2)CCCC4)o1 | –
– | – | – | 5.58 | 5.79 | 38.8 | 2.87 | CC(C)COc1cccc(-c2ccc3nc4c(c(N)c3c2)CCCC4)c1 | –
– | – | – | 3.24 | 3.81 | 23 | 1.44 | Nc1c2c(nc3ccc(-c4ccc(F)nc4)cc13)CCCC2 | –
– | – | – | 3.69 | 3.99 | 25.3 | 1.63 | COc1cc(-c2ccc3nc4c(c(N)c3c2)CCCC4)ccn1 | –
– | – | – | 2.94 | 3.2 | 19.1 | 1.26 | COc1ncc(-c2ccc3nc4c(c(N)c3c2)CCCC4)cn1 | –
– | – | – | 4.86 | 5.42 | 37.9 | 2.28 | Nc1c2c(nc3ccc(-c4ccc(Cl)s4)cc13)CCCC2 | –
– | – | – | 3.43 | 4.08 | 26.2 | 1.59 | Nc1c2c(nc3ccc(-c4ccoc4)cc13)CCCC2 | –
172.8 10^6No_unit | 30 | 46.2 | 3.52 | 3.05 | 20.2 | 0.47 | Nc1c2c(nc3ccc(-c4ccncc4)cc13)CCCC2 | –
– | – | – | 4.5 | 4.86 | 31.6 | 1.4 | CN(C)c1cccc(-c2ccc3nc4c(c(N)c3c2)CCCC4)c1 | –
– | – | – | 3.65 | 4.15 | 26 | 1.6 | Nc1c2c(nc3ccc(-c4ccc(Cl)nc4)cc13)CCCC2 | –
– | – | – | 3.85 | 4.54 | 29.6 | 1.77 | Nc1c2c(nc3ccc(-c4cccs4)cc13)CCCC2 | –
– | – | – | 3.8 | 4.48 | 29.9 | 1.78 | Nc1c2c(nc3ccc(-c4ccsc4)cc13)CCCC2 | –
200.7 10^6No_unit | 93.7 | 14.8 | 2.73 | 2.59 | 14.7 | 0.99 | Nc1c2c(nc3ccc(-c4cncnc4)cc13)CCCC2 | –
– | – | – | 1.2 | 1.4 | 12.2 | 0.65 | COc1ncc(-c2ccc3nc4c(c(N)c3c2)CCCC4)c(OC)n1 | –

Structure (SMILES) | Drug metabolism [1] | half-life at 0.75 h, 3 µM [2] [min] | microsomal CLint at 0.75 h, 3 µM [3] [µL/min/mg] | chromatographic logD [4] | chromatographic logD [5] | CHI | chromatographic logD [6] | other results
Cc1csc(-c2ccc3nc4c(c(N)c3c2)CCCC4)c1 | 207 10^6No_unit | 6.2 | 224 | 4.41 | 4.96 | 33 | 2.12 | NOAEL at 48 h [7]: 15 mg/kg; Tmax [8]: 26.2 min; AUC(0-inf) [9]: 1.96 µM·h; Tmax [10]: 15 min; AUC(0-t) at 2 h [11]: 1.83 µM·h; Kp at 2 h [12]: 2.36; AUC(0-t) at 2 h [13]: 0.775 µM·h; Drug uptake [14]: Active; Cmax [15]: 1470 nM; Drug uptake [16]: Active; Cmax [17]: 945 nM; AUC(0-inf) [18]: 1.08 µM·h
